Columns and labels:
OsCSD4 = test system: T1, OsCSD4; assay: SOD activity, NBT reduction assay (NADH/PMS), A560; format: biochemical, Oryza sativa; conditions: 1 h pre-incubation with DDC (0-2.0 mM); 1 U enzyme; Tris-HCl 50 mM pH 8.0, EDTA 0.1 mM
T1 construct: gene SODCC2

OsCSD1 = test system: T2, OsCSD1; assay: SOD activity, NBT reduction assay (NADH/PMS), A560; format: biochemical, Oryza sativa; conditions: 1 h pre-incubation with DDC (0-2.0 mM); 1 U enzyme; Tris-HCl 50 mM pH 8.0, EDTA 0.1 mM
T2 construct: gene SODCC1

CCN(CC)C(=S)S [diethyldithiocarbamate]
IC50 (OsCSD4): 500 µM
IC50 (OsCSD1): 520 µM
